This passage reports IC50 results from US10508085B2, “Compounds and methods for IDO and TDO modulation, and indications therefor” (Plexxikon Inc., priority 2016, dated 2019).

Each structure is given as a SMILES string. Read-outs that look alike come from different tables or passages of the source.

Experiment [1] deals with T1, human TDO (TDO-expressing HEK293 cells) (Homo sapiens, UniProt P48775).
T1 construct: expressed in transfected cells
Briefly: Cell based kynurenine assay, TDO-expressing HEK293 cell clones. The note with it: TDO-expressing HEK293 cells, geometric mean, read-out: HEK293 TDO Kynurenine GMean IC50 (μM) (Cellular Assay). The essentials: (§1)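 Kynurenine in culture supernatant read after 24 h compound exposure of HEK293 cells stably expressing human IDO1 or TDO. IC50 from nonlinear regression of % inhibition relative to 0.2% DMSO cell (high) and media-only (low) controls.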

Experiment [2] addresses T2, Human Indoleamine 2,3-dioxygenase (IDO) (Homo sapiens, UniProt P14902).
T2 construct: His tag (N); made in house; host or cells: E. coli
Briefly: Human IDO enzymatic assay (kynurenine level). It counts as biochemical. The note with it: 6 nM IDO, 10 μM L-Trp; geometric mean; read-out: IDO1 GMean: IC50 (μM) (Biochemical Assay). The essentials:
(§2)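 Reactions were stopped with TCA, converting N-formylkynurenine to kynurenine for quantitation, with IC50 by nonlinear regression. IDO: 6 nM enzyme, 10 μM L-Trp, 20 min RT. TDO: 1 nM enzyme, 350 μM L-Trp, 70 min RT, both in pH 6.5 buffer.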

Experiment [3] concerns the target T3, Human Tryptophan 2,3-dioxygenase (TDO) (Homo sapiens, UniProt P48775).
T3 construct: His tag (N); made in house; host or cells: E. coli
Briefly: Human TDO enzymatic assay (kynurenine level). It counts as biochemical. The note with it: 1 nM TDO, 350 μM L-Trp; geometric mean; read-out: TDO GMean: IC50 (μM) (Biochemical Assay). In short, it runs like this:
as §2

The target of experiment [4] is T4, human IDO (IDO1-expressing HEK293 cells) (Homo sapiens, UniProt P14902).
T4 construct: expressed in transfected cells
Briefly: Cell based kynurenine assay, IDO1-expressing HEK293 cell clones. The note with it: IDO1-expressing HEK293 cells, geometric mean, read-out: HEK293 IDO1 Kynurenine GMean IC50 (μM) (Cellular Assay). The essentials: as §1

T4 sequence (P14902 whole entry): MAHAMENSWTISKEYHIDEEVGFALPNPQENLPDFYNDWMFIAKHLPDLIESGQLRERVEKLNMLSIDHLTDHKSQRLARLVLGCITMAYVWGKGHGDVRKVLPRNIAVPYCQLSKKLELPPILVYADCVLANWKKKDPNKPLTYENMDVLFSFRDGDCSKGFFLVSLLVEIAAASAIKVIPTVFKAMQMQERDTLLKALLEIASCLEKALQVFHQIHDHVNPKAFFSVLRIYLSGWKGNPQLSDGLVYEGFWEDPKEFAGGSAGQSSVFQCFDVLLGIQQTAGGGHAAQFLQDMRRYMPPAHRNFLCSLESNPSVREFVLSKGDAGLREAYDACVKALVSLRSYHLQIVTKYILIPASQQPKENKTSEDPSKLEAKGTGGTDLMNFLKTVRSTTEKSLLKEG
T2 sequence (P14902 whole entry): as above
T3 sequence (P48775 whole entry): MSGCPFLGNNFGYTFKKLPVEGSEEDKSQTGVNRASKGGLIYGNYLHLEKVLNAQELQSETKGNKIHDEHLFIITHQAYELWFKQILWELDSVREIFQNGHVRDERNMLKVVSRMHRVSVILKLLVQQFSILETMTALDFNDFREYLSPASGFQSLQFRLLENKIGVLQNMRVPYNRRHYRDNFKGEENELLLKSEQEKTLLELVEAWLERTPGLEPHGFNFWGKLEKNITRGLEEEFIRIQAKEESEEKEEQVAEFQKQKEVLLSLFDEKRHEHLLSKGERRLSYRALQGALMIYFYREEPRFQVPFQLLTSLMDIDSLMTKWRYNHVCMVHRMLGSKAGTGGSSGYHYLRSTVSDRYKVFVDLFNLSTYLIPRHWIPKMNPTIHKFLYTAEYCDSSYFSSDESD
T1 sequence (P48775 whole entry): as above

With `Cc1ccc(NC(=O)N2CCC(C(C)(C)C(O)c3cc(Cl)cc4cn[nH]c34)CC2)cc1` (stereo not drawn) [Compound P-0397, 4-(1-(5-chloro-1H-indazol-7-yl)-1-hydroxy-2-methylpropan-2-yl)-N-(p-tolyl) piperidine-1-carboxamide], the IC50 in experiment [1] (24 hours incubation), in experiment [2], in experiment [3] and in experiment [4] (24 hours incubation) was 0.0001 to 10 µM each time.

Take `CC(C)(C1CCN(C(=O)Nc2ccc(F)cc2F)CC1)C(O)c1cc(Cl)cc2cn[nH]c12` (stereo not drawn) [Compound P-0398, 4-(1-(5-chloro-1H-indazol-7-yl)-1-hydroxy-2-methylpropan-2-yl)-N-(2,4-difluorophenyl) piperidine-1-carboxamide]: the IC50 in experiment [1] (24 hours incubation), in experiment [2], in experiment [3] and in experiment [4] (24 hours incubation) was 0.0001 to 10 µM each time.

For the molecule `CCNC(=O)N1CCC(C(C)(C)C(O)c2cc(Cl)cc3cn[nH]c23)CC1` (stereo not drawn) [Compound P-0399, 4-(1-(5-chloro-1H-indazol-7-yl)-1-hydroxy-2-methylpropan-2-yl)-N-ethylpiperidine-1-carboxamide], the IC50 in experiment [1] (24 hours incubation), in experiment [2], in experiment [3] and in experiment [4] (24 hours incubation) was 0.0001 to 10 µM throughout.

`CC(C)(C1CCN(C(=O)Nc2cccc(C(F)(F)F)c2)CC1)C(O)c1cc(Cl)cc2cn[nH]c12` (stereo not drawn) [Compound P-0400, 4-(1-(5-chloro-1H-indazol-7-yl)-1-hydroxy-2-methylpropan-2-yl)-N-(3-(trifluoromethyl)phenyl)piperidine-1-carboxamide]: the IC50 in experiment [1] (24 hours incubation), in experiment [2], in experiment [3] and in experiment [4] (24 hours incubation) was 0.0001 to 10 µM each time.

`CC(C)(C1CCN(C(=O)Nc2ccccc2C(F)(F)F)CC1)C(O)c1cc(Cl)cc2cn[nH]c12` (stereo not drawn) [Compound P-0401, 4-(1-(5-chloro-1H-indazol-7-yl)-1-hydroxy-2-methylpropan-2-yl)-N-(2-(trifluoromethyl)phenyl)piperidine-1-carboxamide]: the IC50 in experiment [1] (24 hours incubation), in experiment [2], in experiment [3] and in experiment [4] (24 hours incubation) was 0.0001 to 10 µM throughout.

Turning to `CN(C)c1ccc(NC(=O)N2CCC(C(C)(C)C(O)c3cc(Cl)cc4cn[nH]c34)CC2)cc1` (stereo not drawn) [Compound P-0402, 4-(1-(5-chloro-1H-indazol-7-yl)-1-hydroxy-2-methylpropan-2-yl)-N-(4-(dimethylamino)phenyl)piperidine-1-carboxamide], the IC50 in experiment [1] (24 hours incubation), in experiment [2], in experiment [3] and in experiment [4] (24 hours incubation) was 0.0001 to 10 µM each time.

As to `CC(C)(C1CCN(C(=O)Nc2ccc(OC(F)(F)F)cc2)CC1)C(O)c1cc(Cl)cc2cn[nH]c12` (stereo not drawn) [Compound P-0403, 4-(1-(5-chloro-1H-indazol-7-yl)-1-hydroxy-2-methylpropan-2-yl)-N-(4-(trifluoromethoxy)phenyl)piperidine-1-carboxamide], the IC50 in experiment [1] (24 hours incubation), in experiment [2], in experiment [3] and in experiment [4] (24 hours incubation) was 0.0001 to 10 µM each time.

With `CC(C)(C1CCN(C(=O)Nc2cc(F)ccc2F)CC1)C(O)c1cc(Cl)cc2cn[nH]c12` (stereo not drawn) [Compound P-0404, 4-(1-(5-chloro-1H-indazol-7-yl)-1-hydroxy-2-methylpropan-2-yl)-N-(2,5-difluorophenyl) piperidine-1-carboxamide], the IC50 in experiment [1] (24 hours incubation), in experiment [2], in experiment [3] and in experiment [4] (24 hours incubation) was 0.0001 to 10 µM in each case.

As to `CCOC(=O)NC(=O)N1CCC(C(C)(C)C(O)c2cc(Cl)cc3cn[nH]c23)CC1` (stereo not drawn) [Compound P-0405, ethyl (4-(1-(5-chloro-1H-indazol-7-yl)-1-hydroxy-2-methylpropan-2-yl)piperidine-1-carbonyl)carbamate], the IC50 in experiment [1] (24 hours incubation), in experiment [2], in experiment [3] and in experiment [4] (24 hours incubation) was 0.0001 to 10 µM throughout.

On to `Cc1ccc(Cl)c(NC(=O)N2CCC(C(C)(C)C(O)c3cc(Cl)cc4cn[nH]c34)CC2)c1` (stereo not drawn) [Compound P-0406, 4-(1-(5-chloro-1H-indazol-7-yl)-1-hydroxy-2-methylpropan-2-yl)-N-(2-chloro-5-methylphenyl) piperidine-1-carboxamide], for which the IC50 in experiment [1] (24 hours), in experiment [2], in experiment [3] and in experiment [4] (24 hours) was 0.0001 to 10 µM in each case.

In the case of `OC1(c2cc(Cl)cc3cn[nH]c23)[C@H]2CCC[C@@H]1CCC2` (stereo partly drawn) [Compound P-0407, (1R,5S)-9-(5-chloro-1H-indazol-7-yl)bicyclo[3.3.1] nonan-9-ol], the IC50 in experiment [1] (24 hours) is 0.0001 to 10 µM; in experiment [2], 0.0001 to 10 µM; in experiment [3], 0.0001 to 10 µM; in experiment [4] (24 hours) it was above 10 µM.

As to `O=C(CC1CC1)N1CCC(C(F)(F)C(O)c2c(F)c(Cl)cc3cn[nH]c23)CC1` (stereo not drawn) [Compound P-0408, 1-(4-(2-(5-chloro-6-fluoro-1H-indazol-7-yl)-1,1-difluoro-2-hydroxyethyl)piperidin-1-yl)-2-cyclopropylethan-1-one], the IC50 in experiment [1] (24 hours), in experiment [2], in experiment [3] and in experiment [4] (24 hours) was 0.0001 to 10 µM in each case.

With `O=C(C1CCC1)N1CCC(C(F)(F)C(O)c2c(F)c(Cl)cc3cn[nH]c23)CC1` (stereo not drawn) [Compound P-0409, (4-(2-(5-chloro-6-fluoro-1H-indazol-7-yl)-1,1-difluoro-2-hydroxyethyl)piperidin-1-yl)(cyclobutyl) methanone], the IC50 in experiment [1] (24 hours), in experiment [2], in experiment [3] and in experiment [4] (24 hours) was 0.0001 to 10 µM throughout.

As for `CC(C)(C1CCN(C(=O)CC2CC2)CC1)C(O)c1cc(Cl)cc2cn[nH]c12` (stereo not drawn) [Compound P-0410, 1-(4-(1-(5-chloro-1H-indazol-7-yl)-1-hydroxy-2-methylpropan-2-yl)piperidin-1-yl)-2-cyclopropylethan-1-one], the IC50 in experiment [1] (24 hours), in experiment [2], in experiment [3] and in experiment [4] (24 hours) was 0.0001 to 10 µM throughout.

Take `CC(C)CC(=O)N1CCC(C(C)(C)C(O)c2cc(Cl)cc3cn[nH]c23)CC1` (stereo not drawn) [Compound P-0411, 1-(4-(1-(5-chloro-1H-indazol-7-yl)-1-hydroxy-2-methylpropan-2-yl)piperidin-1-yl)-3-methylbutan-1-one]: the IC50 in experiment [1] (24 hours), in experiment [2], in experiment [3] and in experiment [4] (24 hours) was 0.0001 to 10 µM throughout.

As for `CC(C)(C1CCN(C(=O)C2CCC2)CC1)C(O)c1cc(Cl)cc2cn[nH]c12` (stereo not drawn) [Compound P-0412, (4-(1-(5-chloro-1H-indazol-7-yl)-1-hydroxy-2-methylpropan-2-yl)piperidin-1-yl)(cyclobutyl) methanone], the IC50 in experiment [1] (24 hours), in experiment [2], in experiment [3] and in experiment [4] (24 hours) was 0.0001 to 10 µM throughout.

Turning to `CC(C)C(=O)N1CCC(C(C)(C)C(O)c2cc(Cl)cc3cn[nH]c23)CC1` (stereo not drawn) [Compound P-0413, 1-(4-(1-(5-chloro-1H-indazol-7-yl)-1-hydroxy-2-methylpropan-2-yl)piperidin-1-yl)-2-methylpropan-1-one], the IC50 in experiment [1] (24 hours), in experiment [2], in experiment [3] and in experiment [4] (24 hours) was 0.0001 to 10 µM throughout.

As for `COCC(=O)N1CCC(C(C)(C)C(O)c2cc(Cl)cc3cn[nH]c23)CC1` (stereo not drawn) [Compound P-0414, 1-(4-(1-(5-chloro-1H-indazol-7-yl)-1-hydroxy-2-methylpropan-2-yl)piperidin-1-yl)-2-methoxyethan-1-one], the IC50 in experiment [1] (24 hours), in experiment [2], in experiment [3] and in experiment [4] (24 hours) was 0.0001 to 10 µM in each case.

In the case of `CS(=O)(=O)NC12CCC(C(O)c3cc(Cl)cc4cn[nH]c34)(CC1)CC2` (stereo not drawn) [Compound P-0415, N-(4-((5-chloro-1H-indazol-7-yl)(hydroxy)methyl)bicyclo[2.2.2]octan-1-yl) methanesulfonamide], the IC50 in experiment [1] (24 hours) is above 10 µM; in experiment [2], 0.0001 to 10 µM; in experiment [3], 0.0001 to 10 µM; in experiment [4] (24 hours) it was 0.0001 to 10 µM.

Consider `CC(C)(C1CCN(C(=O)C2CC2)CC1)C(O)c1c(F)c(Cl)cc2cn[nH]c12` (stereo not drawn) [Compound P-0416, (4-(1-(5-chloro-6-fluoro-1H-indazol-7-yl)-1-hydroxy-2-methylpropan-2-yl)piperidin-1-yl)(cyclopropyl) methanone], for which the IC50 in experiment [1] (24 hours), in experiment [2], in experiment [3] and in experiment [4] (24 hours) was 0.0001 to 10 µM in each case.

On to `CC(C)(C1CCN(C(=O)c2ccccc2)CC1)C(O)c1c(F)c(Cl)cc2cn[nH]c12` (stereo not drawn) [Compound P-0417, (4-(1-(5-chloro-6-fluoro-1H-indazol-7-yl)-1-hydroxy-2-methylpropan-2-yl)piperidin-1-yl)(phenyl) methanone], for which the IC50 in experiment [1] (24 hours), in experiment [2], in experiment [3] and in experiment [4] (24 hours) was 0.0001 to 10 µM each time.

Usually IC50 stands for the concentration needed to halve the response being measured.
